Assay results: patent US20060052419A1, “Use of pyridly amides as inhibitors of angiogenesis” (priority 2002, published 2006)

How the values were obtained:
[1] = tested on: VEGF production in HepG2 cells; experiment: VEGF production in HepG2 cells (ELISA of culture supernatant); format: cell-based, human
Experimental: Trypsin/EDTA: 0.05% (w/v) trypsin (Difco, Detroit, USA)+0.016% (w/v) EDTA (Sigma, Deisenhofen, Germany). N-[4-(1-benzoyl-piperidin-4-yl)-butyl]-3-(pyridin-3-yl)-acrylamide (in the following also referred to as BPPA) was synthesized as described in the literature, by the department of chemistry at Klinge Pharma GmbH, Munich, Germany.
Stock solutions of test compound: a 10 mM solution was prepared in dimethyl sulfoxide (DMSO) and stored at −18° C.; further dilution steps were done in ethanol.
The human-derived tumor cell lines HepG2 (liver carcinoma) was obtained from the American Type Culture Collection (ATCC), Rockville, Md., USA.
Richter's Improved Minimal Essential Medium, Zinc Option (IMEM-ZO), was purchased from Gibco BRL, Life Technologies (Eggenstein, Germany). The standard medium MEM and the human serum albumin were purchased from Sigma (Deisenhofen, Germany). The medium powder was dissolved in deionized water, the pH titrated to 7.2 with HCl/NaOH and sterilized by filtration. The medium was supplemented with 10% fetal calf serum (FCS), PAN Systems GmbH, Aidenbach, Germany.
Monolayer cells were detached from 75 cm^2 flasks by removing the growth medium and adding 3 ml trypsin/EDTA solution to each flask. After about 5-10 minutes incubation at 37° C., when the cells were detached from the surface of the dishes, trypsinization was stopped by adding 3 ml Richter's IMEM-ZO medium containing 10% FCS. The cells were suspended by repeated pipetting. For predilution, an aliquot of 20 μl was added to 10 ml Casyton isotonic solution (No. 043-90037P, Scharfe System, Reutlingen, Germany) using a Sysmex Auto Dilutor Type AD-260 (Toa, Medical Electronics Co. Ltd., Kobe, Japan). The cell number was determined by electronic cell volume measurements by counting with a CASY 1 Cell Counter & Analyzer System, Model TTC (Schärfe System, Reutlingen, Germany) equipped with a 60 μm capillary. Following dilution in growth medium (IMEM-ZO), the cells were finally seeded at a density of 25,000 cells per 1000 μl in 24-well culture dishes (Greiner, Frickenhausen, Germany) for the VEGF assay and incubated at 37° C. in a humidified atmosphere of 5% CO2 in air.
After six days of incubation, when the cells were nearly confluent, the medium was removed and cultures were replenished with 1 ml fresh serum free MEM medium containing 0.1% human serum albumin plus the test substance or the solvent ethanol as control. The cells were then incubated at 37° C. in a humidified atmosphere of 5% CO2 in air. On the next day the medium was removed again and the cultures were incubated with further 0.5 ml serum free MEM containing 0.1% human serum albumin plus the test substance or the solvent ethanol as control. After 48 and 72 hours the medium was collected, centrifuged at 1000 rpm for 5 minutes to remove cell debris. Supernatants were stored at −20° C. until quantification of the VEGF concentration. Furthermore the protein content of the remaining cell layer in each well was determined as reference parameter.
VEGF determination was measured in the supernatants of the cell cultures using a commercially available ELISA kit (R&D, Systems, Wiesbaden/Germany). The method for the determination was performed as described in the test kit brochure.
The results are summarized in the following Table 1, where the VEGF concentration in the supernatant after 48 h and 72 h of incubation was determined. […]

[2] = tested on: murine renal cell carcinoma (RENCA); experiment: Blood vessel density in primary tumors of murine renal cell carcinoma (RENCA) model; format: in vivo, Balb/c mice; details: sacrifice day 21
Experimental: Murine RENCA cells were originally obtained from a tumor that arose spontaneously in the kidney of BALB/c mice. Histologically, RENCA consists of granular cell type adenocarcinoma, which is pleomorphic with large nuclei. Monolayers of murine RENCA cells were grown in RPMI 1640 with phenol red supplemented with 10% FCS, 2 mM L-glutamine, 100 units penicillin/ml, and 100 μg of streptomycin/ml. RENCA cells were cultured in a humidified atmosphere of 95% air and-5% carbon dioxide at 37° C. Media were routinely changed every 3 days.
For the in vivo administration N-[4-(1-benzoyl-piperidin-4-yl)-butyl]-3-(pyridin-3-yl)-acrylamide was solubilized in a 0.9% saline solution and TNP-470 in a saline solution containing 3% absolute ethanol.
All experiments were carried out using 6-8 weeks old male Balb/c mice (approximate weight, 20 g). Mice are maintained in separated conventional housing at constant temperature and humidity […]
All animals were sacrificed on day 21 after tumor implantation and the tumor tissue of all animals was surgically removed and quickly frozen in liquid nitrogen. […] For the visualization of the blood vessels, immunohistochemical staining for CD 31 (PECAM-1 and MEC 13.3; PharMingen, San Diego, Calif.) was performed, and vessels were counted microscopically using a defined magnification.

[3] = Maximum tolerated dose (MTD); design: species or system Balb/c mice; details: Balb/c, mouse, in vivo
Experimental: N-[4-(1-benzoyl-piperidin-4-yl)-butyl]-3-(pyridin-3-yl)-acrylamide was given to the animals p.o. twice a day on days 10, 11, 12, 13, 14, and 15 after tumor implantation. The doses were 3, 5, 6, or 10 mg/kg per each administration. TNP-470 was injected into the animals s.c. on days 2, 4, 6, 8, 10, 12, 14, 16, 18 and 20 after tumor implantation at the maximum tolerated dose, 30 mg/kg. Control animals received the vehicle (0.9% saline solution) p.o. twice a day on days 10, 11, 12, 13, 14, and 15 after tumor implantation. At least seven animals per test group were used.
TNP-470 was administered at the MTD (maximum tolerated dose), 30 mg/kg, and over a longer time range than BPPA which was given below the MTD (approximately 12 mg/kg).

For `O=C(C=Cc1cccnc1)NCCCCC1CCN(C(=O)c2ccccc2)CC1` [BPPA, N-[4-(1-benzoyl-piperidin-4-yl)-butyl]-3-(pyridin-3-yl)-acrylamide], the “VEGF concentration in the supernatant” value ([1]; 2 nM compound in medium, 48 hours incubation) was 208.30 pg/200 μl, the “VEGF concentration in the supernatant” value ([1]; 2 nM compound in medium, 72 hours incubation) was 0.00 pg/200 μl and the “VEGF concentration in the supernatant” value ([1]; 20 nM compound in medium, 48 hours incubation) was 0.00 pg/200 μl. The “VEGF concentration in the supernatant” value ([1]; 20 nM compound in medium, 72 hours incubation) was 0.00 pg/200 μl, the “inhibition of the production of VEGF” value ([1]; after 48 hours of incubation, FIG. 1) was “inhibited the production of VEGF in HepG2 cells very effectively” and the “vessel density in the RENCA tumor” value ([2]; 3, 5, 6 and 10 mg/kg p.o. twice a day on days 10-15 after tumor implantation, CD 31 staining) was “significantly reduced the vessel density”. For the same compound, the MTD ([3]; po) was ~12 mg/kg.

With `CO[C@@H]1[C@H](OC(=O)NC(=O)CCl)CC[C@]2(CO2)[C@H]1[C@@]1(C)O[C@@H]1CC=C(C)C` [TNP-470, reference compound] the “vessel density in the RENCA tumor, effectiveness compared to BPPA” value ([2]; 30 mg/kg (MTD) s.c. on days 2, 4, 6, 8, 10, 12, 14, 16, 18 and 20 after tumor implantation) was “not as effective as BPPA” and the MTD ([3]; sc) was 30 mg/kg.
